Key:
Assay in all cases: selective drug sensitivity score (sDSS, relative to normal bone marrow) (sDSS (score)); higher = more potent and effective on the cell line relative to normal bone marrow cells
Settings in all cases: 72 h
HAL-01 = tested on: HAL-01
P12-ICHIKAWA = tested on: P12-ICHIKAWA
DND-41 = tested on: DND-41
SUP-B15 = tested on: SUP-B15
COG-LL-394h = tested on: COG-LL-394h
ALL-PO = tested on: ALL-PO
COG-LL-402h = tested on: COG-LL-402h
CCRF-HSB2 = tested on: CCRF-HSB2
KASUMI-2 = tested on: KASUMI-2
HPB-ALL = tested on: HPB-ALL
RPMI-8402 = tested on: RPMI-8402
MOLT-16 = tested on: MOLT-16
SEM cells = tested on: SEM cells
MHH-CALL-2 = tested on: MHH-CALL-2
ALL-SIL = tested on: ALL-SIL
RCH-ACV = tested on: RCH-ACV
KASUMI-10 = tested on: KASUMI-10
COG-LL-317 = tested on: COG-LL-317
KOPN-8 = tested on: KOPN-8
MHH-CALL-4 = tested on: MHH-CALL-4
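Note: ALL cell lines in 384-well plates, five doses spanning 10,000-fold, each plate scaled between vehicle and 100 µmol/L benzalkonium chloride controls, sDSS an adapted area-under-curve metric.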

Row | SMILES | selective drug sensitivity score (HAL-01) | selective drug sensitivity score (P12-ICHIKAWA) | selective drug sensitivity score (DND-41) | selective drug sensitivity score (SUP-B15) | selective drug sensitivity score (COG-LL-394h) | selective drug sensitivity score (ALL-PO) | selective drug sensitivity score (COG-LL-402h) | selective drug sensitivity score (CCRF-HSB2) | selective drug sensitivity score (KASUMI-2) | selective drug sensitivity score (HPB-ALL) | selective drug sensitivity score (RPMI-8402) | selective drug sensitivity score (MOLT-16) | selective drug sensitivity score (SEM cells) | selective drug sensitivity score (MHH-CALL-2) | selective drug sensitivity score (ALL-SIL) | selective drug sensitivity score (RCH-ACV) | selective drug sensitivity score (KASUMI-10) | selective drug sensitivity score (COG-LL-317) | selective drug sensitivity score (KOPN-8) | selective drug sensitivity score (MHH-CALL-4)
1 | CC(C)NC(=O)COc1cccc(-c2nc(Nc3ccc4[nH]ncc4c3)c3ccccc3n2)c1 [KD025] (top concentration 5000 nM) | -3.26 | -4.06 | -5.36 | 2.14 | -1.36 | 5.24 | -5.36 | -3.86 | -5.06 | -3.26 | -2.36 | 0.64 | -2.96 | 3.94 | 1.24 | -2.16 | -5.36 | -5.36 | 0.74 | 1.04
2 | CNC(=O)c1cc(Oc2ccc(NC(=O)Nc3ccc(Cl)c(C(F)(F)F)c3)cc2)ccn1 [Sorafenib] (top concentration 1000 nM) | 2.9 | 0 | 0 | 0 | 0 | 5.5 | 0 | 0 | 0 | 0.1 | 0 | 0 | 15.1 | 0.3 | 0 | 1.4 | 12.2 | 0 | 2 | 0
3 | CCn1c(C(=O)N(C2CC2)C2CC2)cc2c3c(ncn3C)c(Nc3cc(C)n(C)n3)nc21 (top concentration 10000 nM) | 1.04 | -4.36 | -3.86 | -4.36 | -4.36 | 8.14 | -4.36 | 5.14 | -4.36 | -3.16 | -4.16 | -4.36 | 0.94 | 3.44 | -4.36 | -3.06 | -0.66 | -4.36 | -4.36 | -1.56
4 | Cc1ccc(C(=O)N(CCCN)[C@@H](c2oc3cc(Cl)ccc3c(=O)c2Cc2ccccc2)C(C)C)cc1 (top concentration 100 nM) | 3.66 | 1.76 | -0.64 | 4.26 | -2.24 | -0.24 | 3.06 | 9.56 | 3.56 | 13.8 | 2.86 | 7.46 | 5.66 | 9.46 | 1.06 | 1.96 | 1.96 | 1.16 | 3.46 | 6.96
5 | CC(C)(C)c1cnc(CSc2cnc(NC(=O)C3CCNCC3)s2)o1 [SNS-032] (top concentration 10000 nM) | -8.04 | -5.04 | -2.44 | -3.14 | -2.04 | -6.74 | 3.06 | -2.24 | -5.44 | -4.74 | -4.74 | -0.64 | -3.24 | 2.96 | -3.84 | 1.26 | -2.64 | 1.66 | -2.54 | -1.04
6 | Cn1cncc1[C@@](N)(c1ccc(Cl)cc1)c1ccc2c(c1)c(-c1cccc(Cl)c1)cc(=O)n2C [Tipifarnib] (top concentration 10000 nM) | 6.3 | 9.6 | 2.8 | 8.9 | -1.1 | 9 | 6.6 | 9.4 | -1.3 | 6.1 | 20.9 | 11.8 | 18.6 | 7.8 | 11.1 | 6.9 | 3 | 15.3 | 11.2 | 6.6
7 | N#Cc1ccc(COC[C@H]2O[C@@H](n3c(NCc4ccc(Cl)c(Cl)c4)nc4c(N)ncnc43)[C@H](O)[C@@H]2O)cc1 (top concentration 10000 nM) | 0.42 | 7.22 | 8.82 | 5.72 | -0.08 | 4.82 | 2.02 | 9.92 | -0.08 | 4.32 | 7.92 | 9.72 | 5.22 | 0.52 | 11.7 | 8.62 | -0.68 | 6.22 | 2.02 | -0.68
8 | COCCNCc1ccc(-c2cc3nccc(Oc4ccc(NC(=S)NC(=O)Cc5ccc(F)cc5)cc4F)c3s2)nc1 [Glesatinib] (top concentration 2500 nM) | 2.44 | -1.66 | 0.44 | 7.24 | 0.84 | 9.04 | -1.76 | 11.7 | 4.74 | -0.26 | 0.54 | -1.96 | 14.1 | 0.94 | 10.4 | 3.74 | 8.74 | 0.64 | 6.14 | 0.14
9 | CNC(=O)c1nn(C)c2c1C(C)(C)Cc1cnc(Nc3ccc(N4CCN(C)CC4)cc3)nc1-2 [Milciclib] (top concentration 10000 nM) | 5.94 | 2.34 | 9.04 | 8.14 | 1.74 | 9.94 | 12 | 13.9 | -2.56 | 4.44 | 5.54 | 6.44 | 10 | 9.54 | 10.9 | 14.3 | 12.6 | 8.94 | 5.84 | -0.06
10 | Cc1noc2c1-c1ccccc1C(c1ccc(Cl)cc1)=N[C@H]2CC(N)=O [CPI-0610] (top concentration 10000 nM) | -2.2 | 4.4 | 1.6 | 5.7 | 0.5 | 7.9 | 4.9 | 0.8 | -5.8 | 1 | 4.4 | 6.7 | 7.5 | -3 | -0.6 | 10.9 | 4.6 | 3.3 | 11.1 | -4.1

Source: the supplement of paper PMC8967900
